The source of these data is PMC8767159, “Multiparameter Optimization of Trypanocidal Cruzain Inhibitors With In Vivo Activity and Favorable Pharmacokinetics” (Frontiers in Pharmacology, 2022).

Read-outs that look alike come from different tables or passages of the source.

The target in this assay is T1, cruzain (Trypanosoma cruzi, UniProt P25779).
T1 construct: made in house; host or cells: Escherichia coli (strain M15)
As to the kind of experiment: Cruzain enzyme inhibition assay (cleavage of fluorogenic substrate Z-FR-AMC). The class given is biochemical. To be noted: for inhibition at 100 µM: compound 100 µM, mean of three measures; for Mechanism of cruzain inhibition (Lineweaver-Burk plots): eight substrate and four inhibitor concentrations; for % cruzain inhibition, 0% Triton / % cruzain inhibition, 0.01% Triton / % cruzain inhibition, 0.1% Triton: Table S1; for % cruzain inhibition, 0% Triton: 0% Triton X-100; for % cruzain inhibition, 0.01% Triton: 0.01% Triton X-100; for % cruzain inhibition, 0.1% Triton: 0.1% Triton X-100. As to the method: Pro-cruzain truncated at the C-terminus was expressed and purified using a previously described protocol ([Ferreira et al., 2019]). Escherichia coli (strain M15) cultures were grown overnight at 37°C and 200 rpm in Luria Bertani (LB) medium supplemented with ampicillin (100 μg/ml) and kanamycin (50 μg/ml). Next, the cultures were diluted 10-fold in fresh LB medium supplemented with 0.5 M NaCl, 0.2% glucose, 1 mM betaine, 0.5 M sorbitol, 100 μg/ml ampicillin, and 50 μg/ml kanamycin and incubated at 37°C and 200 rpm. At an optical density (OD600) of 0.9, the cultures were incubated at 47°C for 20 min to promote the expression of chaperones. Then, the expression of cruzain was induced by adding isopropyl β-D-thiogalactopyranoside (IPTG) to a final concentration of 0.2 mM, which was followed by overnight incubation of the cultures at 20°C and 200 rpm. Next, the cultures were centrifuged (5,000 rpm, 30 min, 4°C), and the cells were suspended in 50 ml of lysis buffer (300 mM NaCl, 50 mM Tris-HCl, and 1.6 mg/ml lysozyme, pH 8.0) per liter of culture and lysed by sonication (12 cycles of 30 s). This cell lysate was centrifuged (9,000 rpm, 30 min, 4°C), and the supernatant was collected. Cruzain was precipitated by incubation with 35% ammonium sulfate (2 h), and this suspension was centrifuged at 9,000 rpm for 30 min at 4°C. The precipitated cruzain was resuspended in lysis buffer, and the sample was dialyzed to eliminate ammonium sulfate. The soluble fraction of the dialysate was loaded on a Ni−NTA column (Qiagen, Hilden, Germany), and the contaminants were washed using washing buffer (300 mM NaCl, 50 mM Tris-HCl, and 10 mM imidazole, pH 8.0). Cruzain was eluted by applying an increasing imidazole gradient: 25, 50, 75, 100, and 250 mM. The fractions containing cruzain were pooled together and dialyzed against 1.5 L of 0.1 M acetate buffer, pH 5.5, and then concentrated to 0.5 mg/ml. Pro-cruzain was activated by incubation with activation buffer (100 mM sodium acetate, pH 5.5, 10 mM EDTA, 5 mM DTT, and 1 M NaCl) at 37°C. […] After activation, the enzyme was diluted 20-fold in binding buffer (20 mM sodium phosphate and 150 mM NaCl, pH 7.2) and added to thiopropyl Sepharose 6B resin (GE Healthcare Life Sciences, Pittsburgh, PA). After overnight incubation at 4°C, the resin was loaded on a column, and cruzain was eluted with binding buffer supplemented with 20 mM DTT. Fractions containing cruzain were pooled together and stored in 0.1 M sodium acetate, pH 5.5, at −80°C.
Cruzain activity was followed by monitoring the cleavage of the fluorogenic substrate Z-Phe-Arg-aminomethyl coumarin (Z-FR-AMC), as previously described ([Ferreira et al., 2019]), using 96-well flat-bottom black plates and wavelengths of 355 nm for excitation and 460 nm for emission. All cruzain assays were performed in 0.1 M sodium acetate buffer with 5 mM dithiothreitol (DTT) and 0.01% Triton X-100, pH 5.5. […] The cleavage of the substrate was monitored for 5 min, and the activity was calculated based on the initial reaction rates compared with the rate of a DMSO control at 30°C. The IC50 values were independently calculated by considering the rate measurements for at least six inhibitor concentrations, each evaluated in triplicate. To determine the mechanism of cruzain inhibition, eight concentrations of the substrate Z-FR-AMC and four concentrations of the inhibitor were employed, each in triplicate. Kinetic parameters were determined using the SigmaPlot (Systat Software Inc., Erkrath, Germany) enzyme kinetics module. Compounds were tested in two or three independent experiments. All enzyme assays were performed using varying Triton X-100 concentrations (0, 0.01, and 0.1%) ([Ferreira et al., 2009]). Compound concentrations were 100 μM in the single-dose percentage inhibition assays.

Where [1] appears, read: 1.5 nM cruzain, 5.0 µM Z-FR-AMC, mean ± SD of 2–3 assays, read-out: IC50 (µM) against cruzain.
The mark [2] stands for this setting: Table S2, substrate 2.5 µM, read-out: IC50 (µM) cruzain at [S] 2.5 µM.
Setting [3] is: Table S2, substrate 5 µM, read-out: IC50 (µM) cruzain at [S] 5 µM.
Setting [4] is: Table S2, substrate 10 µM, read-out: IC50 (µM) cruzain at [S] 10 µM.
Where [5] appears, read: Table S2, substrate 15 µM, read-out: IC50 (µM) cruzain at [S] 15 µM.
Setting [6] is: Table S2, substrate 20 µM, read-out: IC50 (µM) cruzain at [S] 20 µM.
Setting [7] is: Table S2, substrate 40 µM, read-out: IC50 (µM) cruzain at [S] 40 µM.

T1 sequence (P25779 123-337 limits assumed): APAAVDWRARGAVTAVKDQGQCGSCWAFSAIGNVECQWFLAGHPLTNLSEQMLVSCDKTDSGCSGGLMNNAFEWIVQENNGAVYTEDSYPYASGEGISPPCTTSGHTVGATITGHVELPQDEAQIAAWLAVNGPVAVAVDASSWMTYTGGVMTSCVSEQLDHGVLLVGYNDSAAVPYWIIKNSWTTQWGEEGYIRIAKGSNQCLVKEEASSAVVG

A word on the inhibition: it is the relative decrease from the control value, in per cent. As to `O=C(COc1cccc(NC(=O)CCCO)c1)NCCc1nc2ccccc2[nH]1` [Compound 7], at 100 µM the inhibition was 75%.
What is called IC50 is the concentration that inhibits the measured activity by half. Turning to `CC(=O)Nc1cccc(OCC(=O)NCCc2nc3ccccc3[nH]2)c1` [Compound 3], the inhibition at 100 µM amounted to 70%. Further, under setting [1], the IC50 is 28.1 ± 3.1 µM.
Consider `O=C(COc1ccccc1)NCCc1nc2ccccc2[nH]1` [Compound 1], for which the inhibition at 100 µM stood at 90% and the “Mechanism of cruzain inhibition (Lineweaver-Burk plots)” value (from here on “Mechanism of cruzain inhibition”) is listed as “competitive”. Also, under setting [1], the IC50 was found to be 10.9 ± 1 µM.
As to `O=C(COc1ccccc1)NCCc1nc2ccccc2n1Cc1ccccc1` [Compound 26], 100 µM produced 77% inhibition and the “Mechanism of cruzain inhibition” value is “noncompetitive”. For the same compound, under setting [1], the IC50 was 1.1 ± 0.2 µM. Moreover, the IC50 under setting [2] was 1.6 ± 0.1 µM. Further, the IC50 under setting [3] amounted to 1.8 ± 0.1 µM. Besides, the IC50 under setting [4] came out at 1.9 ± 0.2 µM. In addition, the IC50 under setting [5] turned out to be 1.4 ± 0.5 µM. The IC50 under setting [6] came out at 2.4 ± 0.9 µM. For the same compound, under setting [7], the IC50 was found to be 1.2 ± 0.5 µM.
As for `C=CCCn1c(CCNC(=O)COc2ccccc2)nc2ccccc21` [Compound 27], the inhibition at 100 µM amounted to 79% and the “Mechanism of cruzain inhibition” value is reported as “noncompetitive”. Besides, under setting [1], the IC50 was 13.7 ± 1.4 µM. Also, the IC50 under setting [2] stood at 12.4 ± 2.2 µM. The IC50 under setting [3] came out at 7.5 ± 1.2 µM. Also, the concentration for half-maximal inhibition (IC50) under setting [4] amounted to 14.7 ± 1.8 µM. Further, under setting [5], the half-inhibitory concentration (IC50) was determined as 11.2 ± 1.5 µM. In addition, the IC50 under setting [6] came out at 10.2 ± 1.5 µM. Also, under setting [7], the IC50 turned out to be 8.9 ± 3.1 µM.
`NC(=O)Cn1c(CCNC(=O)COc2ccccc2)nc2ccccc21` [Compound 28] yielded an inhibition at 100 µM of 81%. For the same compound, the IC50 under setting [1] stood at 12.1 ± 2.4 µM.
On the same counts, the results for `Nc1cccc(OCC(=O)NCCc2nc3ccccc3[nH]2)c1` [Compound 9] are 90% and 18.2 ± 1.8 µM.
Turning to `Cn1c(CCNC(=O)COc2ccccc2)nc2ccccc21` [Compound 25], the inhibition at 100 µM was 87% and the “Mechanism of cruzain inhibition” value is “competitive”. Further, under setting [1], the IC50 turned out to be 8.6 ± 1.7 µM.
Turning to `O=C(COc1ccc(NC(=O)CCCO)cc1)NCCc1nc2ccccc2[nH]1` [Compound 5], 100 µM produced 87% inhibition.
Regarding `O=C(COc1ccccc1)NCCc1nc2ccccc2n1CCOCc1ccccc1` [Compound 21], the “% cruzain inhibition, 0% Triton” value worked out at 80.3 ± 1.4%; the “% cruzain inhibition, 0.01% Triton” value is listed as 85.5 ± 2.3%; the “% cruzain inhibition, 0.1% Triton” value is 84.6 ± 1.3%; 100 µM produced 76% inhibition. Under setting [1], the IC50 turned out to be 1.69 ± 0.4 µM.
Take `O=C(COc1ccc2cc(O)ccc2c1)NCCc1nc2ccccc2[nH]1` [Compound 10]: 100 µM produced 90% inhibition. In addition, under setting [1], the IC50 was 3.4 ± 0.9 µM.
In the case of `COCCn1c(CCNC(=O)COc2ccccc2)nc2ccccc21` [Compound 29], the inhibition at 100 µM came to 79%. In addition, the IC50 under setting [1] was 8.8 ± 1.8 µM.
`O=C(COc1ccccc1)NCCc1nc2ccccc2n1CCOc1ccccc1Br` [Compound 19]: the “% cruzain inhibition, 0% Triton” value is 73.4 ± 2.5%; the “% cruzain inhibition, 0.01% Triton” value was found to be 72.1 ± 1.7%; the “% cruzain inhibition, 0.1% Triton” value turned out to be 77.5 ± 2.2%; the inhibition at 100 µM came out at 72%.
In turn, `O=C(COc1cccc([N+](=O)[O-])c1)NCCc1nc2ccccc2[nH]1` [Compound 8] came in with an inhibition at 100 µM of 83%. The IC50 under setting [1] came to 13.5 ± 2.6 µM.
Regarding `O=C(COc1ccc(N2C(=O)CCC2=O)cc1)NCCc1nc2ccccc2[nH]1` [Compound 4], testing at 100 µM gave an inhibition of 20%.
With `O=C(COc1ccccc1)NCCc1nc2ccccc2n1CCOc1ccccc1` [Compound 20], the “% cruzain inhibition, 0% Triton” value was found to be 95.2 ± 0.6%; the “% cruzain inhibition, 0.01% Triton” value is 95.9 ± 1.7%; the “% cruzain inhibition, 0.1% Triton” value is reported as 96.0 ± 1.1%; testing at 100 µM gave an inhibition of 92%. Besides, the “Mechanism of cruzain inhibition” value was “noncompetitive”. Also, the half-inhibitory concentration (IC50) under setting [1] was 1.04 ± 0.7 µM. Besides, the half-inhibitory concentration (IC50) under setting [2] stood at 0.5 ± 1.3 µM. Besides, the IC50 under setting [3] is 0.4 ± 1.2 µM. Besides, the IC50 under setting [4] was determined as 1 ± 1.5 µM. Besides, under setting [5], the concentration for half-maximal inhibition (IC50) was found to be 0.8 ± 1.7 µM. Besides, the IC50 under setting [6] worked out at 0.3 µM. In addition, the half-maximal inhibitory concentration (IC50) under setting [7] is 0.5 ± 1.2 µM.
As to `CC(=O)Nc1ccc(OCC(=O)NCCc2nc3ccccc3[nH]2)cc1` [Compound 2], the inhibition at 100 µM was determined as 79%. Also, the IC50 under setting [1] is 4.5 ± 0.5 µM.
On the same counts, the results for `O=C(COc1ccc2ccc(O)cc2c1)NCCc1nc2ccccc2[nH]1` [Compound 11] are 96% and 2.7 ± 0.7 µM.
`O=C(COc1cccc(N2C(=O)CCC2=O)c1)NCCc1nc2ccccc2[nH]1` [Compound 6] showed an inhibition at 100 µM of 38%.
For `O=C(COc1ccccc1)NCCc1nc2ccccc2n1CCCOc1ccccc1` [Compound 24], the “% cruzain inhibition, 0% Triton” value was determined as 87.9 ± 0.7%; the “% cruzain inhibition, 0.01% Triton” value is given as 82.6 ± 0.3%; the “% cruzain inhibition, 0.1% Triton” value is on record as 82.9 ± 3.5%; the inhibition at 100 µM came out at 81%. In addition, the “Mechanism of cruzain inhibition” value is “noncompetitive”. Besides, the 50% inhibitory concentration (IC50) under setting [1] amounted to 2.2 ± 1.2 µM. Further, the half-maximal inhibitory concentration (IC50) under setting [2] was found to be 1.7 ± 1.3 µM. In addition, the IC50 under setting [3] was determined as 2.2 ± 1.3 µM. Besides, the half-maximal inhibitory concentration (IC50) under setting [4] was found to be 2.2 ± 1.1 µM. The IC50 under setting [5] was 1.9 ± 1.8 µM. Besides, the IC50 under setting [6] was 2.5 ± 1.2 µM. Under setting [7], the IC50 was 2.1 ± 0.9 µM.
For the compound `O=C(COc1ccccc1)NCCc1nc2ccccc2n1-c1ccccc1` [Compound 30], 100 µM produced 79% inhibition. The IC50 under setting [1] was found to be 8.6 ± 2.6 µM.
Regarding `Cc1ccccc1OCC(=O)NCCc1nc2ccccc2n1CCOc1ccccc1Br` [Compound 22], the inhibition at 100 µM was 36%.
As to `O=C(COc1ccccc1Br)NCCc1nc2ccccc2n1CCOc1ccccc1Br` [Compound 23], the “% cruzain inhibition, 0% Triton” value is on record as 52.1 ± 1.3%; the “% cruzain inhibition, 0.01% Triton” value turned out to be 53.2 ± 1.9%; the “% cruzain inhibition, 0.1% Triton” value is listed as 55.5 ± 5.2%; the inhibition at 100 µM amounted to 49%.
`O=C(COc1ccc2c(C(=O)O)cccc2c1)NCCc1nc2ccccc2[nH]1` [Compound 15] yielded an inhibition at 100 µM of 58%. In addition, the IC50 under setting [1] was > 100 µM.
For the compound `COc1ccc2cc(OCC(=O)NCCc3nc4ccccc4[nH]3)ccc2c1` [Compound 12], the inhibition at 100 µM was 100%. In addition, the IC50 under setting [1] came out at 2.3 ± 0.6 µM.
